Values after ≈ are worked out from the molar mass of the structure shown. Values belong to the compound of their own block, whether it stands above or below them.
What was measured:
[1] = Saturation solubility of drug substance in different dissolution media (incubator shaker, 24 hrs, HPLC); assay type: physicochemical; conditions: 37° C.; for solubility at 24 h: thermodynamic from solid
Method: Solubility study of drug substance was carried out in different dissolution media. The saturated solutions of drug substance were prepared in the recommended dissolution media. Initial pH of the saturated solutions was noted. Then the solutions were allowed to shake for 24 hours in the incubator shaker at 150 RPM. The temperature was kept around 37° C.±0.5° C. After 24 hours of shaking, pH of saturated solutions was noted. Further dilutions of these solutions were made as per the standard concentration. Analysis was carried out using HPLC technique. The sample was prepared in triplicates for saturation solubility determination.

[2] = Dissolution studies for Example 2 (TA0 to TA14); assay type: physicochemical; conditions: 4.5 Acetate Buffer + 0.75% SLS, Type II, 500 mL, 60 RPM
[3] = cited from earlier work
[4] = as disclosed in US'304 patent; cited from earlier work
[5] = pH 4.5 Acetate Buffer + 0.75% SDS
[6] = pH 6.8 Phosphate Buffer + 0.75% SDS
[7] = pH 7.0 Phosphate Buffer + 0.75% SDS

Solubility mg/250 mL ([1]; 0.1N HCl + 0.75% SDS): 17 mg/250 mL
Solubility mg/500 mL ([1]; 0.1N HCl + 0.75% SDS): 33 mg/500 mL
Solubility mg/900 mL ([1]; 0.1N HCl + 0.75% SDS): 60 mg/900 mL
Solubility mg/250 mL ([1]; 0.1N HCl): 4.2 mg/250 mL
Solubility mg/500 mL ([1]; 0.1N HCl): 8 mg/500 mL
Solubility mg/900 mL ([1]; 0.1N HCl): 15 mg/900 mL
solubility at 24 h ([1]; aqueous buffer, pH 4.5 Acetate Buffer): 10 µg/mL (≈ 16.2 µM)
solubility at 24 h ([1]; aqueous buffer, pH 6.8 Phosphate Buffer): 20 µg/mL (≈ 32.5 µM)
solubility at 24 h ([1]; aqueous with cosolvent or surfactant or cyclodextrin, 0.1N HCl + 0.75% SDS): 70 µg/mL
solubility at 24 h ([1]; aqueous with cosolvent or surfactant or cyclodextrin, pH 4.5 Acetate Buffer + 0.75% SDS): 100 µg/mL
solubility at 24 h ([1]; aqueous with cosolvent or surfactant or cyclodextrin, pH 6.8 Phosphate Buffer + 0.75% SDS): 10 µg/mL
solubility at 24 h ([1]; aqueous with cosolvent or surfactant or cyclodextrin, pH 7.0 Phosphate Buffer + 0.75% SDS): 10 µg/mL
Solubility mg/250 mL [1, 5]: 24 mg/250 mL
Solubility mg/500 mL [1, 5]: 48 mg/500 mL
Solubility mg/900 mL [1, 5]: 87 mg/900 mL
Solubility mg/250 mL ([1]; pH 4.5 Acetate Buffer): 2.5 mg/250 mL
Solubility mg/500 mL ([1]; pH 4.5 Acetate Buffer): 5 mg/500 mL
Solubility mg/900 mL ([1]; pH 4.5 Acetate Buffer): 9 mg/900 mL
Solubility mg/250 mL [1, 6]: 3 mg/250 mL
Solubility mg/500 mL [1, 6]: 5 mg/500 mL
Solubility mg/900 mL [1, 6]: 9 mg/900 mL
Solubility mg/250 mL ([1]; pH 6.8 Phosphate Buffer): 4.2 mg/250 mL
Solubility mg/500 mL ([1]; pH 6.8 Phosphate Buffer): 8 mg/500 mL
Solubility mg/900 mL ([1]; pH 6.8 Phosphate Buffer): 15 mg/900 mL
Solubility mg/250 mL [1, 7]: 3 mg/250 mL
Solubility mg/500 mL [1, 7]: 5 mg/500 mL
Solubility mg/900 mL [1, 7]: 9 mg/900 mL
Solubility mg/250 mL ([1]; pH 7.0 Phosphate Buffer): 0.0 mg/250 mL
Solubility mg/500 mL ([1]; pH 7.0 Phosphate Buffer): 0 mg/500 mL
Solubility mg/900 mL ([1]; pH 7.0 Phosphate Buffer): 0 mg/900 mL
solubility at 24 h ([1]; simulated gastric fluid, 0.1N HCl): 20 µg/mL (≈ 32.5 µM)
% DR ([2]; 5 mins): 9%
% DR ([2]; 10 mins): 11%
% DR ([2]; 15 mins): 12%
% DR ([2]; 20 mins): 13%
% DR ([2]; 30 mins): 14%
% DR ([2]; 45 mins): 16%
% DR ([2]; 60 mins): 17%
% DR ([2]; 90 mins): 19%
% DR ([2]; 120 mins): 21%
SMILES: CC(=O)Nc1cccc(-n2c(=O)n(C3CC3)c(=O)c3c(Nc4ccc(I)cc4F)n(C)c(=O)c(C)c32)c1 [Trametinib, N-(3-{3-Cyclopropyl-5-[(2-fluoro-4-iodophenyl)amino]-6,8-dimethyl-2,4,7-trioxo-3,4,6,7-tetrahydropyrido[4,3-d]pyrimidin-1 (2H)-yl}phenyl) acetamide]
Solubility relative to dimethyl sulfoxide solvate ([3]; as disclosed in US'304 patent): much less soluble than dimethyl sulfoxide solvate of Trametinib
Exposure and absorption upon in vivo administration [4]: poor exposure and absorption

Average solubility ([1]; 0.1N HCl + 0.75% SDS): 50 µg/mL
Solubility mg/250 mL ([1]; 0.1N HCl + 0.75% SDS): 11.7 mg/250 mL
Solubility mg/500 mL ([1]; 0.1N HCl + 0.75% SDS): 23 mg/500 mL
Solubility mg/900 mL ([1]; 0.1N HCl + 0.75% SDS): 42 mg/900 mL
Solubility mg/250 mL ([1]; 0.1N HCl): 0.8 mg/250 mL
Solubility mg/500 mL ([1]; 0.1N HCl): 2 mg/500 mL
Solubility mg/900 mL ([1]; 0.1N HCl): 3 mg/900 mL
Average solubility [1, 5]: 240 µg/mL
Solubility mg/250 mL [1, 5]: 60.0 mg/250 mL
Solubility mg/500 mL [1, 5]: 120 mg/500 mL
Solubility mg/900 mL [1, 5]: 216 mg/900 mL
Solubility mg/250 mL ([1]; pH 4.5 Acetate Buffer): 0.0 mg/250 mL
Solubility mg/500 mL ([1]; pH 4.5 Acetate Buffer): 0 mg/500 mL
Solubility mg/900 mL ([1]; pH 4.5 Acetate Buffer): 0 mg/900 mL
Average solubility [1, 6]: 70 µg/mL
Solubility mg/250 mL [1, 6]: 18.3 mg/250 mL
Solubility mg/500 mL [1, 6]: 37 mg/500 mL
Solubility mg/900 mL [1, 6]: 66 mg/900 mL
Solubility mg/250 mL ([1]; pH 6.8 Phosphate Buffer): 0.0 mg/250 mL
Solubility mg/500 mL ([1]; pH 6.8 Phosphate Buffer): 0 mg/500 mL
Solubility mg/900 mL ([1]; pH 6.8 Phosphate Buffer): 0 mg/900 mL
Average solubility [1, 7]: 70 µg/mL
Solubility mg/250 mL [1, 7]: 18.3 mg/250 mL
Solubility mg/500 mL [1, 7]: 37 mg/500 mL
Solubility mg/900 mL [1, 7]: 66 mg/900 mL
Solubility mg/250 mL ([1]; pH 7.0 Phosphate Buffer): 0.0 mg/250 mL
Solubility mg/500 mL ([1]; pH 7.0 Phosphate Buffer): 0 mg/500 mL
Solubility mg/900 mL ([1]; pH 7.0 Phosphate Buffer): 0 mg/900 mL
% DR ([2]; 5 mins): 27%
% DR ([2]; 10 mins): 34%
% DR ([2]; 15 mins): 38%
% DR ([2]; 20 mins): 39%
% DR ([2]; 30 mins): 41%
% DR ([2]; 45 mins): 42%
% DR ([2]; 60 mins): 43%
% DR ([2]; 90 mins): 44%
% DR ([2]; 120 mins): 44%
SMILES: CC(=O)Nc1cccc(-n2c(=O)n(C3CC3)c(=O)c3c(Nc4ccc(I)cc4F)n(C)c(=O)c(C)c32)c1.C[S+](C)[O-] [Trametinib DMSO, Trametinib dimethyl sulfoxide]
Solubility in aqueous media ([3]; pH range of 2 to 8): practically insoluble

% DR ([2]; 5 mins): 2%
% DR ([2]; 10 mins): 3%
% DR ([2]; 15 mins): 5%
% DR ([2]; 20 mins): 7%
% DR ([2]; 30 mins): 9%
% DR ([2]; 45 mins): 13%
% DR ([2]; 60 mins): 16%
% DR ([2]; 90 mins): 23%
% DR ([2]; 120 mins): 29%
SMILES: CC(=O)Nc1cccc(-n2c(=O)n(C3CC3)c(=O)c3c(Nc4ccc(I)cc4F)n(C)c(=O)c(C)c32)c1.CC(=O)O [TA2, Trametinib acetic acid solvate]
